The text below walks through data of patent publication US10513523B2, “Imidazopyrazines and pyrazolopyrimidines and their use as AMPA receptor modulators” (Janssen Pharmaceutica NV, priority 2015, dated 2019).

Structures are written as SMILES.

GluA1o-γ8 (GRIA1o-CACNG8 fusion construct; TARP γ8 dependent AMPA receptor), sequence (P42261 other isoform, or with tags, fused parts or gaps): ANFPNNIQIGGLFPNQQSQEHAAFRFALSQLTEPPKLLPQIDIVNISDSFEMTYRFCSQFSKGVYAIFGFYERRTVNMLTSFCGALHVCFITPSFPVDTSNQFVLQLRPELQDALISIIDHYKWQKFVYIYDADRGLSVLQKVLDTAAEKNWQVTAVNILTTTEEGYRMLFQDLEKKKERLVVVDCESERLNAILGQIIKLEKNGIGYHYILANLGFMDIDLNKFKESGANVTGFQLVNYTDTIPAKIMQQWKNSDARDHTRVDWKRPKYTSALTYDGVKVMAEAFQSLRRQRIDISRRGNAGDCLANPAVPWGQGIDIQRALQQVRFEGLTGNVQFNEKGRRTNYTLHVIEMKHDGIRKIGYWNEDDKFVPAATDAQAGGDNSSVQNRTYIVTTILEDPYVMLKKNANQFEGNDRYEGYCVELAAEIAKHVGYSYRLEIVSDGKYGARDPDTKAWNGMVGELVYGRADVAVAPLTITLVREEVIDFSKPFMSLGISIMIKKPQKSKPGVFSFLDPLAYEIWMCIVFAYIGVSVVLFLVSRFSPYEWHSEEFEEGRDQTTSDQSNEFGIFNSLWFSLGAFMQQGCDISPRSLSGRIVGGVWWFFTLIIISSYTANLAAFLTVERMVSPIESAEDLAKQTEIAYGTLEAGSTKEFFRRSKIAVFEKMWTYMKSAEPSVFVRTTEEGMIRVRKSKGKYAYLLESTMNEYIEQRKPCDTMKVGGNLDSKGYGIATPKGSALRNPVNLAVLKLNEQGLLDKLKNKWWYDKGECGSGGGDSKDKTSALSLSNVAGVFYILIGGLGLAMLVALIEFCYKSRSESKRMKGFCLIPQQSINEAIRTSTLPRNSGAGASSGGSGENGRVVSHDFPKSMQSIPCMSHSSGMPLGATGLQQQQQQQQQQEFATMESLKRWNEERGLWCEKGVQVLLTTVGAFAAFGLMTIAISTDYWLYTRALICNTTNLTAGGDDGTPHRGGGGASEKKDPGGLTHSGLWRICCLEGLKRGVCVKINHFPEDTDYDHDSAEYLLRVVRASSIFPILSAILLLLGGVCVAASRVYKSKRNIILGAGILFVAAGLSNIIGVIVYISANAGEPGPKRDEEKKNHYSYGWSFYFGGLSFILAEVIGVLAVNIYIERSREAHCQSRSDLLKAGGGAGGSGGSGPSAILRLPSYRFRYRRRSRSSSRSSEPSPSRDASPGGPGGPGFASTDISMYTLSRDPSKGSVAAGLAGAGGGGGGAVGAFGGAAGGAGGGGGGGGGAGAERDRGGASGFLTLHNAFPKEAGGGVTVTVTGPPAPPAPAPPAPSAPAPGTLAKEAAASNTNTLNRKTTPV

The experiment concerns the target GluA1o-γ8 (GRIA1o-CACNG8 fusion construct; TARP γ8 dependent AMPA receptor) (Homo sapiens (Human), UniProt P42261+Q8WXS5). Briefly: Calcium flux assay (FLIPR), inhibition of glutamate response of GluA1o-γ8 channel. Type of experiment: cell-based. Conditions: HEK293 cells stably expressing GRIA1o-CACNG8 fusion; 15 μM glutamate; pIC50 = negative log of IC50 in molar; read-out: GluR1-γ8 (pIC50) (converted). An excerpt: This assay was used to test compounds for their ability to inhibit TARP γ8 dependent AMPA receptor activity. The AMPA receptor is a non-selective cation channel activated by glutamate. Ionotropic glutamate receptors normally desensitize too rapidly to allow detectable calcium influx in a FLIPR assay (Strange et al. (2006). “Functional characterisation of homomeric ionotropic glutamate receptors GluR1-GluR6 in a fluorescence-based high throughput screening assay.” Comb Chem High Throughput Screen 9(2): 147-158). But, this desensitization is incomplete, and a substantial steady-state current remains in the sustained presence of glutamate (Cho et al. (2007). “Two families of TARP isoforms that have distinct effects on the kinetic properties of AMPA receptors and synaptic currents.” Neuron 55(6): 890-904).
An in vitro assay was used to determine the potency of test compounds as inhibitors of the glutamate response of the channel formed by GluA1o-γ8. To ensure a 1:1 stoichiometry of GluA10 and γ8 subunits in the expressed channel, a fusion of the cDNAs for GRIA1o and CACNG8 was used. Following Shi et al (2009) “The stoichiometry of AMPA receptors and TARPs varies by neuronal cell type.” Neuron 62(5): […]), the C-terminus of the cDNA for GRI1o was fused to the N-terminus of the cDNA for γ8. The linker sequence was […]. […] A clonal cell line in HEK293 cells stably expressing this construct, with a geneticin selection marker, was generated for use in this assay. Cell expressing the GRIA1o-CACNG8 fusion construct were grown in a monolayer in 96- or 384-well microtiter plates. They were washed with assay buffer (135 mM NaCl, 4 mM KCl, 3 mM CaCl2, 1 mM MgCl2, 5 mM glucose, 10 mM HEPES, pH 7.4, 300 mOs) using a Biotek EL405 plate washer. The cells were then loaded with a calcium-sensitive dye (Calcium-5 or Calcium-6, Molecular Devices) and the test compounds at a range of concentrations. Calcium flux following the addition of 15 μM glutamate was monitored using a Molecular Devices FLIPR Tetra.
The fluorescence in each well was normalized to the fluorescence of negative and positive control wells. […] The responses to glutamate as functions of the test compound concentrations were fitted to a four-parameter logistic function. The fitted parameter corresponding to the midpoint was taken to be the potency of inhibition of the compound.
With `O=C1Cc2cc(-c3c(-c4ccc(F)cc4)nc4c(N5CC[C@@H](O)[C@H](F)C5)nccn34)ccc2N1` (relative stereo) [Example 70, (trans)-5-[8-(3-Fluoro-4-hydroxy-1-piperidyl)-2-(4-fluorophenyl)imidazo[1,2-a]pyrazin-3-yl]indolin-2-one], the IC50 was 0.158 nM.
As to `O=C1Cc2cc(-c3c(-c4ccc(F)cc4)nc4c(N5CC[C@H](O)[C@H](F)C5)nccn34)ccc2N1` (relative stereo) [Example 73, (cis)-5-[8-(3-Fluoro-4-hydroxy-1-piperidyl)-2-(4-fluorophenyl)imidazo[1,2-a]pyrazin-3-yl]indolin-2-one], the IC50 is 0.316 nM.
Under `O=C1Cc2cc(-c3c(-c4ccccc4)nn4c(N5CC[C@@H](O)[C@H](F)C5)nccc34)ccc2N1` (relative stereo) [Example 193, trans-5-[7-(3-Fluoro-4-hydroxy-1-piperidyl)-2-phenyl-pyrazolo[1,5-c]pyrimidin-3-yl]indolin-2-one] stands 0.316 nM; under `O=C1Cc2cc(-c3c(-c4ccccc4)nn4c(N5CC[C@@H](O)[C@@H](F)C5)nccc34)ccc2N1` (relative stereo) [Example 204, (cis)-5-[7-(3-Fluoro-4-hydroxy-1-piperidyl)-2-phenyl-pyrazolo[1,5-c]pyrimidin-3-yl]indolin-2-one], 1.26 nM; under `O=C1Cc2cc(-c3c(-c4ccc(F)cc4)nc4c(N5CCO[C@@H](C(F)(F)F)C5)nccn34)ccc2N1` (single isomer, unassigned) [Example 48, (R*)-5-[2-(4-Fluorophenyl)-8-[2-(trifluoromethyl)morpholin-4-yl]imidazo[1,2-a]pyrazin-3-yl]indolin-2-one], 12.6 nM.
Next, `O=C1Cc2cc(-c3c(-c4ccc(F)cc4)nc4c(N5CCO[C@H](C(F)(F)F)C5)nccn34)ccc2N1` (single isomer, unassigned) [Example 49, (S*)-5-[2-(4-Fluorophenyl)-8-[2-(trifluoromethyl)morpholin-4-yl]imidazo[1,2-a]pyrazin-3-yl]indolin-2-one]: 7.94 nM; `O=C1Cc2cc(-c3c(-c4ccc(F)cc4)nc4c(N5CC[C@@H](O)C5)nccn34)ccc2N1` (single isomer, unassigned) [Example 52, (R*)-5-[2-(4-Fluorophenyl)-8-(3-hydroxypyrrolidin-1-yl)imidazo[1,2-a]pyrazin-3-yl]indolin-2-one]: 1.58 nM; `O=C1Cc2cc(-c3c(-c4ccc(F)cc4)nc4c(N5CC[C@H](O)C5)nccn34)ccc2N1` (single isomer, unassigned) [Example 53, (S*)-5-[2-(4-Fluorophenyl)-8-(3-hydroxypyrrolidin-1-yl)imidazo[1,2-a]pyrazin-3-yl]indolin-2-one]: 1.58 nM.
Next, `CC(=O)N[C@@H]1CCN(c2nccn3c(-c4ccc5c(c4)CC(=O)N5)c(-c4ccc(F)cc4)nc23)C1` (single isomer, unassigned) [Example 150]: 3.16 nM.
`Cc1cc(O)ccc1-c1c(-c2ccc(F)cc2)nc2c(N3CCOCC3)nccn12` [Example 2, 4-[2-(4-Fluorophenyl)-8-morpholino-imidazo[1,2-a]pyrazin-3-yl]-3-methyl-phenol]: the IC50 was 31.6 nM.
Under `CC(C)(C)OC(=O)N1CCN(c2nccn3c(-c4ccc(O)cc4)c(-c4ccc(F)cc4)nc23)CC1` [Example 3, tert-Butyl 4-[2-(4-fluorophenyl)-3-(4-hydroxyphenyl)imidazo[1,2-a]pyrazin-8-yl]piperazine-1-carboxylate] stands 631 nM; under `Oc1ccc(-c2c(-c3cccc(F)c3)nc3c(N4CCOCC4)nccn23)cc1` [Example 4, 4-[2-(3-Fluorophenyl)-8-morpholino-imidazo[1,2-a]pyrazin-3-yl]phenol], 63.1 nM.
Next, `Oc1ccc(-c2c(-c3ccc(F)cc3)nc3c(N4CCNCC4)nccn23)cc1` [Example 5, 4-[2-(4-Fluorophenyl)-8-piperazin-1-yl-imidazo[1,2-a]pyrazin-3-yl]phenol]: 1260 nM; `CN1CCN(c2nccn3c(-c4ccc(O)cc4)c(-c4ccc(F)cc4)nc23)CC1` [Example 6, 4-[2-(4-Fluorophenyl)-8-(4-methylpiperazin-1-yl)imidazo[1,2-a]pyrazin-3-yl]phenol]: 501 nM; `Oc1ccc(-c2c(-c3ccc(F)cc3)nc3c(N4CCCCC4)nccn23)cc1` [Example 9, 4-[2-(4-Fluorophenyl)-8-(1-piperidyl)imidazo[1,2-a]pyrazin-3-yl]phenol]: 200 nM.
Next, `O=c1[nH]c2ccc(-c3c(-c4ccc(F)cc4)nc4c(N5CCOCC5)nccn34)cc2[nH]1` [Example 11, 5-[2-(4-Fluorophenyl)-8-morpholino-imidazo[1,2-a]pyrazin-3-yl]-1,3-dihydrobenzimidazol-2-one]: 0.398 nM.
Turning to `CC(=O)N1CCN(c2nccn3c(-c4ccc5[nH]ncc5c4)c(-c4ccc(F)cc4)nc23)CC1` [Example 13, 1-[4-[2-(4-Fluorophenyl)-3-(1H-indazol-5-yl)imidazo[1,2-a]pyrazin-8-yl]piperazin-1-yl]ethanone], the IC50 is 0.2 nM.
Under `CC(=O)N1CCN(c2nccn3c(-c4ccc5[nH]c(=O)[nH]c5c4)c(-c4ccc(F)cc4)nc23)CC1` [Example 14, 5-[8-(4-Acetylpiperazin-1-yl)-2-(4-fluorophenyl)imidazo[1,2-a]pyrazin-3-yl]-1,3-dihydrobenzimidazol-2-one] stands 1.58 nM; under `Oc1ccc(-c2c(Cc3ccccc3)nc3c(N4CCOCC4)nccn23)cc1` [Example 15, 4-(2-Benzyl-8-morpholino-imidazo[1,2-a]pyrazin-3-yl)phenol], 25.1 nM.
On to `Fc1ccc(-c2nc3c(N4CCOCC4)nccn3c2-c2ccc3[nH]ccc3c2)cc1` [Example 16, 4-[2-(4-Fluorophenyl)-3-(1H-indol-5-yl)imidazo[1,2-a]pyrazin-8-yl]morpholine], for which the IC50 was 15.8 nM.
Next, `CC(=O)N1CCN(c2nccn3c(-c4ccc5[nH]ncc5c4)c(Cc4ccccc4)nc23)CC1` [Example 18, 1-[4-[2-Benzyl-3-(1H-indazol-5-yl)imidazo[1,2-a]pyrazin-8-yl]piperazin-1-yl]ethanone]: 0.794 nM; `CC(=O)N1CCN(c2nccn3c(-c4ccc5[nH]c(=O)[nH]c5c4)c(Cc4ccccc4)nc23)CC1` [Example 19, 5-[8-(4-Acetylpiperazin-1-yl)-2-benzyl-imidazo[1,2-a]pyrazin-3-yl]-1,3-dihydrobenzimidazol-2-one]: 3.98 nM.
With `O=C1Cc2cc(-c3c(Cc4ccccc4)nc4c(N5CCOCC5)nccn34)ccc2N1` [Example 20, 5-(2-Benzyl-8-morpholino-imidazo[1,2-a]pyrazin-3-yl)indolin-2-one], the IC50 is 1 nM.
Next, `c1ccc(Cc2nc3c(N4CCOCC4)nccn3c2-c2ccc3[nH]ncc3c2)cc1` [Example 21, 4-[2-Benzyl-3-(1H-indazol-5-yl)imidazo[1,2-a]pyrazin-8-yl]morpholine]: 1 nM.
Next, `O=c1[nH]c2ccc(-c3c(Cc4ccccc4)nc4c(N5CCOCC5)nccn34)cc2[nH]1` [Example 22, 5-(2-Benzyl-8-morpholino-imidazo[1,2-a]pyrazin-3-yl)-1,3-dihydrobenzimidazol-2-one]: 1.58 nM; `CC(=O)N1CCN(c2nccn3c(-c4ccc(O)cc4)c(Cc4ccccc4)nc23)CC1` [Example 23, 1-[4-[2-Benzyl-3-(4-hydroxyphenyl)imidazo[1,2-a]pyrazin-8-yl]piperazin-1-yl]ethanone]: 25.1 nM; `O=C1Cc2cc(-c3c(-c4ccc(F)cc4)nc4c(N5CC6(COC6)C5)nccn34)ccc2N1` [Example 24, 5-[2-(4-Fluorophenyl)-8-(6-oxa-2-azaspiro[3.3]heptan-2-yl)imidazo[1,2-a]pyrazin-3-yl]indolin-2-one]: 5.01 nM.
Next, `Fc1ccc(-c2nc3c(N4CC5(COC5)C4)nccn3c2-c2ccc3[nH]ncc3c2)cc1` [Example 25, 2-[2-(4-Fluorophenyl)-3-(1H-indazol-5-yl)imidazo[1,2-a]pyrazin-8-yl]-6-oxa-2-azaspiro[3.3]heptane]: 7.94 nM; `O=c1[nH]c2ccc(-c3c(-c4ccc(F)cc4)nc4c(N5CC6(COC6)C5)nccn34)cc2[nH]1` [Example 26, 5-[2-(4-Fluorophenyl)-8-(6-oxa-2-azaspiro[3.3]heptan-2-yl)imidazo[1,2-a]pyrazin-3-yl]-1,3-dihydrobenzimidazol-2-one]: 5.01 nM.
